For orientation: IC50 means the concentration that gives 50% inhibition. High values mean weaker potency, low ones greater potency. As a reminder, the Kd is a measure of binding affinity in units of concentration.

The target of one assay is SARS-CoV-2 S-RBD/ACE2 (Severe acute respiratory syndrome coronavirus 2, UniProt P0DTC2). Put plainly: NanoBiT RBD/ACE2 interaction assay in HEK293 cells. The assay is classed as cell-based.
Assay [1] deals with recombinant SARS-CoV-2 S-trimer protein; trimeric spike protein (Severe acute respiratory syndrome coronavirus 2, UniProt P0DTC2). Put plainly: SPR (Biacore T200), spike trimer immobilised on CM5 chip. The assay is classed as binding. For orientation: Surface plasmon resonance follows binding to a sensor surface in real time, without labels.

Molecules are shown by their SMILES.

The molecule `CN(/N=C/c1ccccc1C(=O)O)c1nc(-c2ccccc2Cl)cs1` [S416] gave a concentration for half-maximal inhibition (IC50) against SARS-CoV-2 S-RBD/ACE2 of 3.94 µM. In addition, the Kd in assay [1] is 6.88 µM.

These data come from article PMC12279193 (Advanced Science, 2025).
